Experimental data taken from PMC4163096 (Bioorganic & medicinal chemistry letters, 2014).
Like-named read-outs stand apart in the source and are kept apart here.

Key:
[1] = target: T1, TSPO (Rattus norvegicus, UniProt P16257); conditions: cited from earlier work; for Ki: read-out: Ki for TSPO in C6 glioma, C6 glioma
[2] = Radio-TLC analysis of plasma samples taken during PET scan; assay type: in vivo, male Wistar rats; conditions: samples at 2, 12, 30, 60 min, n=2, preliminary
[3] = target: T1, TSPO; assay: Radiometric TSPO binding assay, [3H]PK11195 displacement in heart lysate; design: species or system athymic nude rat; conditions: for Ki: read-out: Heart Ki, versus [3H]PK11195, Ki ± S.E.M., triplicate
[4] = target: T1, TSPO; assay: Radiometric TSPO binding assay, [3H]PK11195 displacement in kidney lysate; design: species or system athymic nude rat; conditions: read-out: Kidney Ki, low-affinity binding (mixed affinity binding), versus [3H]PK11195, Ki ± S.E.M., low-affinity component

In the case of `CCc1cc(CC)n2nc(-c3ccc(OCCF)cc3)c(CC(=O)N(CC)CC)c2n1` [2b], the Ki [1] is listed as 270 pM.

For `CCc1cc(CC)n2nc(-c3ccc(OCC[18F])cc3)c(CC(=O)N(CC)CC)c2n1` [[^18F]-2b, 2-(5,7-diethyl-2-(4-(2-[^18F]fluoroethoxy)phenyl)pyrazolo[1,5-a]pyrimidin-3-yl)-N,N– diethylacetamide], the “enhancement in affinity compared to [18F]-2a” value ([1]; TSPO affinity) is listed as 36 fold.

In the case of `CN(C)C(=O)Cc1nn(-c2cccc([18F])n2)c(=O)c2c1c1ccc(Cl)cc1n2C` [[^18F]-14, 7-chloro-N,N,5-trimethyl-4-oxo-3(6-[^18F]fluoropyridin-2-yl)-3,5-dihydro-4H-pyridazino[4,5-b]indole-1-acetamide], the “% parent at 60 min” value [2] is reported as greater than 90%.

In the case of `COc1ccc(OC)c(CN(C(=O)CF)c2ccccc2Oc2ccccc2)c1` [compound 1], the Ki [1] is listed as 6170 pM.

`CN(C)C(=O)Cc1nn(-c2cccc([N+](=O)[O-])c2)c(=O)c2c1c1ccc(Cl)cc1n2C` [compound 11] gave a Ki [3] of 1.18 ± 0.09 pM.

In the case of `CN(C)C(=O)Cc1nn(-c2ccc(F)cc2)c(=O)c2c1c1ccc(Cl)cc1n2C` [compound 12], the Ki [4] is reported as 969 pM.

For `CN(C)C(=O)Cc1nn(-c2ccccn2)c(=O)c2c1c1ccc(Cl)cc1n2C` [compound 13], the Ki [3] was 4940 ± 662 pM and the “Heart Ki” value ([3]; versus [3H]PK11195, Ki ± S.E.M., triplicate) was “did not appreciably bind TSPO”.
